Experimental data: patent publication US12077503B2, “Substituted cyclic amides and their use as herbicides” (FMC CORPORATION, priority 2015, dated 2024)

How the values were obtained:
Type in all cases: in vivo
[1] = tested on: wheat (Triticum aestivum); test: Test A postemergence; settings: Triticum aestivum, post-emergence, 240 h, Postemergence; for plant injury at 125 g/ha: 125 g ai/ha, visual rating about 10 d after treatment, read-out: Wheat plant response rating (0 to 100 scale); for plant injury at 500 g/ha: 500 g ai/ha, visual injury, 0 to 100 scale (0 no effect, 100 complete control), approx. 10 d, read-out: Plant response rating, Wheat
Procedure, shortened: (§1)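 Seeded soil received test chemicals as a preemergence directed spray, and seedlings at one to two leaves, 2–10 cm tall, received them postemergence, in a non-phytotoxic, surfactant-containing solvent mixture. Pots were held in a greenhouse for approximately 10 d, then rated for injury from 0, no effect, to 100, complete control.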

[2] = tested on: pigweed (Amaranthus retroflexus); test: Test A postemergence; settings: Amaranthus retroflexus, post-emergence, 240 h, Postemergence; for pest or weed control at 125 g/ha: 125 g ai/ha, visual rating about 10 d after treatment, read-out: Pigweed plant response rating (0 to 100 scale); for pest or weed control at 500 g/ha: 500 g ai/ha, visual injury, 0 to 100 scale (0 no effect, 100 complete control), approx. 10 d, read-out: Plant response rating, Pigweed
Procedure, shortened: as §1

[3] = tested on: barnyardgrass (Echinochloa crus-galli); test: Test A postemergence; settings: Echinochloa crus-galli, post-emergence, 240 h, Postemergence; for pest or weed control at 125 g/ha: 125 g ai/ha, visual rating about 10 d after treatment, read-out: Barnyardgrass plant response rating (0 to 100 scale, 0 no effect, 100 complete control); for pest or weed control at 500 g/ha: 500 g ai/ha, visual injury, 0 to 100 scale (0 no effect, 100 complete control), approx. 10 d, read-out: Plant response rating, Barnyardgrass
Procedure, shortened: as §1

[4] = tested on: corn (Zea mays); test: Test A postemergence; settings: Zea mays, post-emergence, 240 h, Postemergence; for plant injury at 125 g/ha: 125 g ai/ha, visual rating about 10 d after treatment, read-out: Corn plant response rating (0 to 100 scale); for Corn plant response rating (crop injury, 0 = no effect, 100 = complete kill) at 500 g/ha: 500 g ai/ha, visual injury, 0 to 100 scale (0 no effect, 100 complete control), approx. 10 d
Procedure, shortened: as §1

[5] = tested on: crabgrass, large (Digitaria sanguinalis); test: Test A postemergence; settings: Digitaria sanguinalis, post-emergence, 240 h, Postemergence; for pest or weed control at 125 g/ha: 125 g ai/ha, visual rating about 10 d after treatment, read-out: Crabgrass, Large plant response rating (0 to 100 scale); for pest or weed control at 500 g/ha: 500 g ai/ha, visual injury, 0 to 100 scale (0 no effect, 100 complete control), approx. 10 d, read-out: Plant response rating, Crabgrass, Large
Procedure, shortened: as §1

[6] = tested on: velvetleaf (Abutilon theophrasti); test: Test A postemergence; settings: Abutilon theophrasti, post-emergence, 240 h, Postemergence; for pest or weed control at 125 g/ha: 125 g ai/ha, visual rating about 10 d after treatment, read-out: Velvetleaf plant response rating (0 to 100 scale); for pest or weed control at 500 g/ha: 500 g ai/ha, visual injury, 0 to 100 scale (0 no effect, 100 complete control), approx. 10 d, read-out: Plant response rating, Velvetleaf
Procedure, shortened: as §1

[7] = tested on: morningglory (Ipomoea spp.); test: Test A postemergence; settings: Ipomoea, post-emergence, 240 h, Postemergence; for pest or weed control at 125 g/ha: 125 g ai/ha, visual rating about 10 d after treatment, read-out: Morningglory plant response rating (0 to 100 scale); for pest or weed control at 500 g/ha: 500 g ai/ha, visual injury, 0 to 100 scale (0 no effect, 100 complete control), approx. 10 d, read-out: Plant response rating, Morningglory
Procedure, shortened: as §1

[8] = tested on: giant foxtail (Setaria faberii); test: Test A postemergence; settings: Setaria faberi, post-emergence, 240 h, Postemergence; for pest or weed control at 125 g/ha: 125 g ai/ha, visual rating about 10 d after treatment, read-out: Foxtail, Giant plant response rating (0 to 100 scale); for pest or weed control at 500 g/ha: 500 g ai/ha, visual injury, 0 to 100 scale (0 no effect, 100 complete control), approx. 10 d, read-out: Plant response rating, Foxtail, Giant
Procedure, shortened: as §1

[9] = tested on: wheat (Triticum aestivum); test: Test A preemergence; settings: Triticum aestivum, pre-emergence, 240 h, 0 to 100 scale (0 no effect, 100 complete control), read-out: Plant response rating, Wheat; for plant injury at 500 g/ha: 500 g ai/ha, preemergence; for plant injury at 125 g/ha: Preemergence, 125 g ai/ha
Procedure, shortened: as §1

[10] = tested on: pigweed (Amaranthus retroflexus); test: Test A preemergence; settings: Amaranthus retroflexus, pre-emergence, 240 h, 0 to 100 scale (0 no effect, 100 complete control), read-out: Plant response rating, Pigweed; for pest or weed control at 500 g/ha: 500 g ai/ha, preemergence; for pest or weed control at 125 g/ha: Preemergence, 125 g ai/ha
[11] = tested on: barnyardgrass (Echinochloa crus-galli); test: Test A preemergence; settings: Echinochloa crus-galli, pre-emergence, 240 h, 0 to 100 scale (0 no effect, 100 complete control), read-out: Plant response rating, Barnyardgrass; for pest or weed control at 500 g/ha: 500 g ai/ha, preemergence; for pest or weed control at 125 g/ha: Preemergence, 125 g ai/ha
Procedure, shortened: as §1

[12] = tested on: corn (Zea mays); test: Test A preemergence; settings: Zea mays, pre-emergence, 240 h, 0 to 100 scale (0 no effect, 100 complete control); for Corn plant response rating (crop injury, 0 = no effect, 100 = complete kill) at 500 g/ha: 500 g ai/ha, preemergence; for Corn plant response rating (crop injury, 0 = no effect, 100 = complete kill) at 125 g/ha: Preemergence, 125 g ai/ha
Procedure, shortened: as §1

[13] = tested on: crabgrass, large (Digitaria sanguinalis); test: Test A preemergence; settings: Digitaria sanguinalis, pre-emergence, 240 h, 0 to 100 scale (0 no effect, 100 complete control), read-out: Plant response rating, Crabgrass, Large; for pest or weed control at 500 g/ha: 500 g ai/ha, preemergence; for pest or weed control at 125 g/ha: Preemergence, 125 g ai/ha
Procedure, shortened: as §1

[14] = tested on: velvetleaf (Abutilon theophrasti); test: Test A preemergence; settings: Abutilon theophrasti, pre-emergence, 240 h, 0 to 100 scale (0 no effect, 100 complete control), read-out: Plant response rating, Velvetleaf; for pest or weed control at 500 g/ha: 500 g ai/ha, preemergence; for pest or weed control at 125 g/ha: Preemergence, 125 g ai/ha
Procedure, shortened: as §1

[15] = tested on: morningglory (Ipomoea spp.); test: Test A preemergence; settings: Ipomoea, pre-emergence, 240 h, 0 to 100 scale (0 no effect, 100 complete control), read-out: Plant response rating, Morningglory; for pest or weed control at 500 g/ha: 500 g ai/ha, preemergence; for pest or weed control at 125 g/ha: Preemergence, 125 g ai/ha
Procedure, shortened: as §1

[16] = tested on: giant foxtail (Setaria faberii); test: Test A preemergence; settings: Setaria faberi, pre-emergence, 240 h, 0 to 100 scale (0 no effect, 100 complete control), read-out: Plant response rating, Foxtail, Giant; for pest or weed control at 500 g/ha: 500 g ai/ha, preemergence; for pest or weed control at 125 g/ha: Preemergence, 125 g ai/ha
Procedure, shortened: as §1

CN1C[C@H](c2ccccc2)[C@](C)(C(=O)Nc2ccccc2F)C1=O (racemic) [Compound 1360]
0%: plant injury at 125 g/ha [1] | plant injury at 500 g/ha [1] | pest or weed control at 125 g/ha [2] | pest or weed control at 500 g/ha [2] | pest or weed control at 125 g/ha [3] | pest or weed control at 500 g/ha [3] | plant injury at 125 g/ha [4] | Corn plant response rating (crop injury, 0 = no effect, 100 = complete kill) at 500 g/ha [4] | pest or weed control at 125 g/ha [5] | pest or weed control at 500 g/ha [5] | pest or weed control at 125 g/ha [6] | pest or weed control at 500 g/ha [6] | pest or weed control at 125 g/ha [7] | pest or weed control at 500 g/ha [7] | pest or weed control at 125 g/ha [8] | pest or weed control at 500 g/ha [8] | plant injury at 500 g/ha [9] | plant injury at 125 g/ha [9] | pest or weed control at 500 g/ha [10] | pest or weed control at 125 g/ha [10] | pest or weed control at 500 g/ha [11] | pest or weed control at 125 g/ha [11] | Corn plant response rating (crop injury, 0 = no effect, 100 = complete kill) at 500 g/ha [12] | Corn plant response rating (crop injury, 0 = no effect, 100 = complete kill) at 125 g/ha [12] | pest or weed control at 500 g/ha [13] | pest or weed control at 125 g/ha [13] | pest or weed control at 500 g/ha [14] | pest or weed control at 125 g/ha [14] | pest or weed control at 500 g/ha [15] | pest or weed control at 125 g/ha [15] | pest or weed control at 500 g/ha [16] | pest or weed control at 125 g/ha [16]

O=C1NCC(c2c(Cl)cccc2Cl)C1C(=O)Nc1ccccc1F (stereo not shown) [Compound 1361]
0%: plant injury at 125 g/ha [1] | plant injury at 500 g/ha [1] | pest or weed control at 125 g/ha [2] | pest or weed control at 500 g/ha [2] | pest or weed control at 125 g/ha [3] | pest or weed control at 500 g/ha [3] | plant injury at 125 g/ha [4] | Corn plant response rating (crop injury, 0 = no effect, 100 = complete kill) at 500 g/ha [4] | pest or weed control at 125 g/ha [5] | pest or weed control at 500 g/ha [5] | pest or weed control at 125 g/ha [6] | pest or weed control at 500 g/ha [6] | pest or weed control at 125 g/ha [7] | pest or weed control at 500 g/ha [7] | pest or weed control at 125 g/ha [8] | pest or weed control at 500 g/ha [8] | plant injury at 500 g/ha [9] | plant injury at 125 g/ha [9] | pest or weed control at 500 g/ha [10] | pest or weed control at 125 g/ha [10] | pest or weed control at 500 g/ha [11] | pest or weed control at 125 g/ha [11] | Corn plant response rating (crop injury, 0 = no effect, 100 = complete kill) at 500 g/ha [12] | Corn plant response rating (crop injury, 0 = no effect, 100 = complete kill) at 125 g/ha [12] | pest or weed control at 500 g/ha [13] | pest or weed control at 125 g/ha [13] | pest or weed control at 500 g/ha [14] | pest or weed control at 125 g/ha [14] | pest or weed control at 500 g/ha [15] | pest or weed control at 125 g/ha [15] | pest or weed control at 500 g/ha [16] | pest or weed control at 125 g/ha [16]
